Measurements: ChEMBL document CHEMBL4177535 (Bioorg Med Chem Lett, 2017)
pEC50: −log10 of the molar value.

Columns and labels:
[1] = target: Rap guanine nucleotide exchange factor 3 (Homo sapiens, UniProt O95398); assay: Activation of EPAC1 DEP1 deletion mutant (unknown origin) expressed in mouse NIH-3T3-A14 cells assessed as increase in Rap1b- fluorescent nucleotide methylontraniloyl-GDP nucleotide exchange by fluorescence assay; assay type: cell-based
[2] = tested on: Human immunodeficiency virus 1; assay: Antiviral activity against R5 tropic HIV-1 BAL infected in human PBL assessed as reduction in Agp24 level at 100 uM measured after 3 days by ELISA relative to control; assay type: functional; parameters: scale not given: the % may be the effect or the level left

Sequence of Rap guanine nucleotide exchange factor 3 (O95398 whole entry, looked up): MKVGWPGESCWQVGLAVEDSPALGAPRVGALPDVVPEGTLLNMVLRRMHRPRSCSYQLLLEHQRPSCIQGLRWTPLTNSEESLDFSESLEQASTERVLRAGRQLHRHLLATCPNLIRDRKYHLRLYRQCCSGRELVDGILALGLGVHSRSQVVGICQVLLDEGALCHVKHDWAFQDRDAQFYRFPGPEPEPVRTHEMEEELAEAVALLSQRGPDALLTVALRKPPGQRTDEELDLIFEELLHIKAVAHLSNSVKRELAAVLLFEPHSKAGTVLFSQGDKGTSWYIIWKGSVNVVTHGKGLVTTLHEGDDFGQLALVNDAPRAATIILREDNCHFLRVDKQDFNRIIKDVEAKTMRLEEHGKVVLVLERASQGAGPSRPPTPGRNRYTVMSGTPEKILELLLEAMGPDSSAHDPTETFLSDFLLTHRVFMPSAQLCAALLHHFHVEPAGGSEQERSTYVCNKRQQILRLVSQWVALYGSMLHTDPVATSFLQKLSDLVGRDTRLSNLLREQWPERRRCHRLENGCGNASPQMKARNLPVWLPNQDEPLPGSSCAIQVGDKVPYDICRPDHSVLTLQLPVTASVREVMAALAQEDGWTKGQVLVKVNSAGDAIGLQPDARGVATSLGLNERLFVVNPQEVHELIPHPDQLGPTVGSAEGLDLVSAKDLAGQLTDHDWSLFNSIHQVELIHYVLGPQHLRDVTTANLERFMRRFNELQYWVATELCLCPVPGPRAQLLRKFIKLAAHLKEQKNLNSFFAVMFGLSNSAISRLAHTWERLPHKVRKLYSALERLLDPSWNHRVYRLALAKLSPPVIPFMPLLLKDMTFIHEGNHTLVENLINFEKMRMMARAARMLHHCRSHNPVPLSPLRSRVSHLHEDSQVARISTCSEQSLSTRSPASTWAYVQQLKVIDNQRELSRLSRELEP

**Q.** CO[C@@H]1[C@@H]2OP(=O)(O)OC[C@H]2O[C@H]1n1c(Sc2ccc(Cl)cc2)nc2c(N)ncnc21 was tested. Which pEC50 [1] did it give?
**A.** The pEC50 was 5.66.

**Q.** What about the Activity [2] of the same molecule?
**A.** Its Activity is 40%.
